Test results: Sander's compilation of Henry's law constants (doi:10.1016/j.chemosphere.2021.129858)

Test: Henry solubility constant Hcp at 298.15 K (mol/(m3 Pa))
Conditions: reference: Schwardt et al. (2021)

| SMILES | Henry solubility constant Hcp |
| --- | --- |
| C=C(Cl)Cl [1,1-dichloroethene] | 0.0004 |
| ClCC(Cl)Cl [1,1,2-trichloroethane] | 0.0073 |
| ClC=C(Cl)Cl [trichloroethene] | 0.001 |
| ClC(Cl)=C(Cl)Cl [tetrachloroethene] | 0.00058 |
| ClCC(Cl)(Cl)Cl [1,1,1,2-tetrachloroethane] | 0.0045 |
| Clc1ccccc1 [chlorobenzene] | 0.002 |
| C=CCl [chloroethene] | 0.00039 |
| Cc1ccc(C)cc1 [1,4-dimethylbenzene] | 0.001 |
| CCc1ccccc1 [ethylbenzene] | 0.0013 |
